Experimental findings from publication PMC8620685, “Effect of Selected Silyl Groups on the Anticancer Activity of 3,4-Dibromo-5-Hydroxy-Furan-2(5H)-One Derivatives” (Pharmaceuticals, 2021) are described below.

Like-named read-outs stand apart in the source and are kept apart here.

Data set [1] relates to U2OS. In words: MTT assay, U2OS. The class given is cell-based. The settings on record: Homo sapiens, 72 h, read-out: IC50 (cytotoxicity), U2OS. As to the method: (§1) The in vitro antitumor activities of the MBA and its derivatives (Table 2) were assayed against a panel of human cancer cell lines (HCT116, HCT-116 ^−/−p53, HT-29, MCF-7, SJSA-1, U2OS, HepG2 and Hep3B) using the MTT assay. As a reference drug we used 5-fluorouracil (5-FU). […] On the basis of in vitro antiproliferative activities, compounds 3b and 3c were selected for further mechanistic studies in the HCT-116 cell line.
(§2) Human cells lines: colon cancer (HCT-116 wt, HT-29), non-small lung carcinoma (A549), and bronchial epithelial cells (BEAS-2B) were obtained from American Type Culture Collection (ATCC, Manassas, VA, USA). Isogenic cell line HCT 116 p53^−/− (deleted both p53 alleles) were a gift from Dr. Bert Vogelstein. Other cell lines, namely MCF-7, SJSA-1, U2OS, HepG2, and Hep3B were received from the collection stored at Centre of Biotechnology of Silesian University of Technology. All cells were grown in DMEM with a high glucose medium (Sigma-Aldrich, Taufkirchen, Germany) supplemented with 10% (v/v) inactivated fetal bovine serum (FBS) (EURx, Gdańsk, Poland) and 1% antibiotics (10,000 μg/mL of streptomycin and 10,000 units/ml of penicillin) (Sigma-Aldrich, Taufkirchen, Germany) at 37 °C in humidified 5% CO2. The maximum concentration of DMSO in the culture media was 0.4%.
(§3) 5 × 10^3 cells per well for the MCF-7 cell line and 2.5 × 10^3 cells per well for the other cell lines were seeded in 96-well plates to adhere for 24 h. Afterward, the cells were treated with tested compounds. After 72 hours of incubation, 50 μL 0.5 mg/ml solution of MTT (3-(4,5-dimethylthiazol-2-yl)-2,5-diphenyl-2H-tetrazolium bromide) were added to each well and the plates were incubated for 3 h at 37 °C. Next, the MTT solution was removed from the plates and formed formazan crystals were dissolved in 2-propanol (Avantor Performance Materials, Gliwice, Poland) containing 0.04 M hydrochloric acid (Avantor Performance Materials, Gliwice, Poland). The absorbance was measured at 570 nm wavelength using a multiwall plate reader (BioTek, Winooski, VT, USA). The experiment was performed at a minimum of 3 independent replicates. Cell viability was set as a percentage versus vehicle control. IC50 was defined as a concentration of a drug that decreased cell viability by 50% relative to the untreated control.
In general terms: Tetrazolium assays rely on reduction of a dye to a coloured formazan, in cell work by metabolically active cells.

In data set [2] the test system is Hep3B. In words: MTT assay, Hep3B. To be noted: Homo sapiens, read-out: IC50 (cytotoxicity), Hep3B. In kind it is cell-based. As to the method: as §1, §2, §3
Data set [3] deals with cleaved caspase-3. The experiment in a line: Human Apoptosis Proteome Profiler array, cleaved caspase-3. The class given is cell-based. The settings on record: HCT-116, 1 h exposure, 2 × IC50 (3b at 30.2 μM). From the text: To explore in detail the molecular mechanism of apoptosis induction by compounds 3b and 3c, we employed Human Apoptosis Proteome Profiler arrays that allow quantification of apoptosis-related biomarkers (Figure 3C). […] Collectively, it can be concluded that silyl derivative 3b promotes cell death in HCT 116 cells by the alteration of expression levels of survivin and activation of caspase-3.
The Human Apoptosis Array Kit (R&D Systems, Abingdon, UK) was used to determine the levels of expression of apoptosis-related proteins. 2.5 × 10^5 HCT 116 wt cells were seeded on 100 mm dishes (Nunc, ThermoFisher, Waltham, MA, USA) and allowed to attach for 24 h. Then the medium was replaced with tested compounds at a concentration corresponding 2 × IC50 value and the cells were incubated in 37 °C. After 60 min the cells were lysed and the lysates were clarified by centrifugation for 30 min at 14,000× g. The total protein concentration was measured using the Protein Quantification Kit-Rapid (Sigma-Aldrich, Taufkirchen, Germany) according to the manufacturer’s instruction. The next steps followed instructions from the manufacturer of the Human Apoptosis Array Kit. The membranes were then scanned in the G:Box trans illuminator (Syngene, Cambridge, UK) and the protein expression levels were quantified by densitometric analysis using ImageJ software.

Data set [4] deals with HCT 116 wt. In words: MTT assay, HCT 116 wt. To be noted: Homo sapiens, HCT-116, 72 h, read-out: IC50 (cytotoxicity), HCT 116 wt, MTT, 72 h incubation. In kind it is cell-based, human. The procedure:
as §1, §2, §3

The subject of data set [5] is SJSA-1. In words: MTT assay, SJSA-1. The settings on record: Homo sapiens, read-out: IC50 (cytotoxicity), SJSA-1. The class given is cell-based. The procedure: as §1, §2, §3
For data set [6], the system named is HCT 116 p53−/−. In words: MTT assay, HCT 116 p53−/−. In kind it is cell-based. To be noted: Homo sapiens, HCT-116, 72 h, read-out: IC50 (cytotoxicity), HCT 116 p53−/−. The procedure:
as §1, §2, §3

In data set [7] the test system is A549. The experiment in a line: MTT assay, NSCLC cell line A549. The settings on record: for IC50: Homo sapiens, read-out: IC50 (cytotoxicity), A549; for SI: selectivity, A549 versus BEAS-2B. In kind it is cell-based, human. The procedure: (§4) One of the major drawbacks of currently used anticancer drugs is their low selectivity, which often leads to undesired side effects that may be harmful to patients. Overcoming this challenging task requires special attention at the pre-clinical development level. To check whether silyl group incorporation may affect the selectivity of compounds towards cancer cells, MBA and all its new silyl derivatives were tested for their efficacy on noncancerous BEAS-2B and cancerous A549 cells line. […] In contrast, compounds 3a and 3d were more cytotoxic to A549 cells with SI values 6.05 and 1.72, respectively. Strikingly, those two compounds have similar cLogP values 3.08 and 3.22, respectively.
as §2, §3

Data set [8] has as its system MCF-7. The experiment in a line: MTT assay, MCF-7. The settings on record: Homo sapiens, MCF7, 72 h, read-out: IC50 (cytotoxicity), MCF-7, MTT, 72 h incubation. In kind it is cell-based, human. The procedure:
as §1, §2, §3

Data set [9] has as its system HT-29. The experiment in a line: MTT assay, HT-29. In kind it is cell-based. The settings on record: Homo sapiens, HT-29, 72 h, read-out: IC50 (cytotoxicity), HT-29. The procedure:
as §1, §2, §3

The nature of data set [10]: MTT assay, normal bronchial epithelium cell line BEAS-2B. The class given is cell-based. To be noted: human. The procedure:
as §4, §2, §3

The mark [11] stands for this setting: BEAS-2B cells (noncancerous bronchial epithelial cells), MTT, 72 h incubation, noncancerous cells, read-out: IC50 (cytotoxicity), BEAS-2B.

`CC(C)[Si](OC1OC(=O)C(Br)=C1Br)(C(C)C)C(C)C` (stereo not drawn) [Compound 3b, 3,4-Dibromo-5-(triisopropylsilyloxy)-furan-2(5H)-one]: the IC50 in data set [1] is 9.3 ± 0.2 µM; in data set [2] (MTT, 72 h incubation), 21.3 ± 3.5 µM; in data set [4], 15.1 ± 1.2 µM; in [5] (SJSA-1, MTT, 72 h incubation), 9.9 ± 1.1 µM; in data set [6] it was 10.8 ± 1 µM; in data set [7] (A549, MTT, 72 h incubation) it was 30.4 ± 4.2 µM. Also, the figures for the IC50 in data set [8] and in data set [9] were 7.7 ± 0.9 µM and 7.3 ± 0.8 µM, respectively. For the same compound, in data set [3], the “cleaved caspase-3 level (caspase-3 activation)” value (shortened to “cleaved caspase-3 level”) is listed as “significant up-regulation of cleaved caspase-3”. In data set [7], this compound registered an SI of 0.41. The IC50 at 72 h in data set [10] (setting [11]) is 12.5 ± 1.4 µM.
Consider `CC(C)(C)[Si](OC1OC(=O)C(Br)=C1Br)(c1ccccc1)c1ccccc1` (stereo not drawn) [Compound 3c, 3,4-Dibromo-5-(tert-butyldiphenylsilyloxy)-furan-2(5H)-one], for which the IC50 in [1] is 10.2 ± 0.8 µM; in data set [2] (MTT, 72 h incubation), 65.6 ± 2.2 µM; in data set [4], 6.3 ± 0.3 µM; in data set [5] (SJSA-1, MTT, 72 h incubation), 14.9 ± 1.5 µM; in [6], 4 ± 0.3 µM; in data set [7] (A549, MTT, 72 h incubation), 29.1 ± 1 µM. The IC50 stood at 10.9 ± 0.7 µM in data set [8] and 3.9 ± 0.2 µM in [9]. In addition, in data set [3], the “cleaved caspase-3 level” value is “neither the MBA nor compound 3c induced caspase-3 activation”. The compound also showed an SI in [7] of 0.70. In addition, the IC50 at 72 h in [10] (setting [11]) was 20.3 ± 0.6 µM.
Take `O=C1OC(O)C(Br)=C1Br` (stereo not drawn) [MBA, 3,4-dibromo-5-hydroxyfuran-2(5H)-one, reference compound]: the IC50 stood at 97.6 ± 1.1 µM in [1]; 125 ± 10.5 µM in data set [2] (72 h); 20.5 ± 5.2 µM in [4]; 213 ± 8.8 µM in data set [5] (SJSA-1, 72 h); 25.4 ± 6 µM in data set [6]; 203 ± 0.3 µM in data set [7] (A549, 72 h). Moreover, the figures for the IC50 in data set [8] and in data set [9] were 142 ± 22.6 µM and 97.1 ± 6.6 µM, respectively. The “cleaved caspase-3 level” value in [3] was “neither the MBA nor compound 3c induced caspase-3 activation”. Besides, the SI in [7] is 0.2. The compound further showed an IC50 at 72 h in [10] of 39.7 ± 9.7 µM.
